Data: ChEMBL document CHEMBL5321262, “Antiviral Activity of Cannabidiolic Acid and Its Methyl Ester against SARS-CoV-2” (J Nat Prod, 2023)
Calls of active or inactive are those of the source. The rule behind the calls is not given here.

Experiments:
SARS-CoV-2 [1] = experiment: Antiviral activity against SARS-CoV-2 variant Omicron BA.2 infected in African green monkey Vero E6 cells assessed as reduction in virus-induced cytopathic effect preincubated with virus for 1 hr followed by infection with cells and measured after 72 hrs by microscopic analysis; assay type: functional, organism-based; settings: Severe acute respiratory syndrome coronavirus 2, time 73.0 hrs
SARS-CoV-2 [2] = experiment: Antiviral activity against SARS-CoV-2 variant Omicron BA.4 infected African green monkey Vero E6 cells assessed as reduction in virus-induced cytopathic effect preincubated with virus for 1 hr followed by infection with cells and measured after 72 hrs by microscopic analysis; assay type: functional, organism-based; settings: Severe acute respiratory syndrome coronavirus 2, time 73.0 hrs
SARS-CoV-2 [3] = experiment: Antiviral activity against SARS-CoV-2 variant Omicron BA.3 infected African green monkey Vero E6 cells assessed as reduction in virus-induced cytopathic effect preincubated with virus for 1 hr followed by infection with cells and measured after 72 hrs by microscopic analysis; assay type: functional, organism-based; settings: Severe acute respiratory syndrome coronavirus 2, time 73.0 hrs
SARS-CoV-2 [4] = experiment: Antiviral activity against SARS-CoV-2 variant Omicron BA.1 infected in African green monkey Vero E6 cells assessed as reduction in virus-induced cytopathic effect preincubated with virus for 1 hr followed by infection with cells and measured after 72 hrs by microscopic analysis; assay type: functional, organism-based; settings: Severe acute respiratory syndrome coronavirus 2, time 73.0 hrs
SARS-CoV-2 [5] = experiment: Antiviral activity against SARS-CoV-2 variant Omicron BA.5 infected African green monkey Vero E6 cells assessed as reduction in virus-induced cytopathic effect preincubated with virus for 1 hr followed by infection with cells and measured after 72 hrs by microscopic analysis; assay type: functional, organism-based; settings: Severe acute respiratory syndrome coronavirus 2, time 73.0 hrs
SARS-CoV-2 [6] = experiment: Antiviral activity against SARS-CoV-2 variant Delta infected in African green monkey Vero E6 cells assessed as reduction in virus-induced cytopathic effect preincubated with virus for 1 hr followed by infection with cells and measured after 72 hrs by microscopic analysis; assay type: functional, organism-based; settings: Severe acute respiratory syndrome coronavirus 2, time 73.0 hrs
SARS-CoV-2 [7] = experiment: Antiviral activity against SARS-CoV-2 variant Omicron BA.1 infected in African green monkey Vero E6 cells assessed as reduction in viral replication at 75 uM measured at 72 hrs post-infection by qRT-PCR analysis; assay type: functional, organism-based; settings: Severe acute respiratory syndrome coronavirus 2
SARS-CoV-2 [8] = experiment: Antiviral activity against SARS-CoV-2 variant Omicron BA.5 infected in African green monkey Vero E6 cells assessed as reduction in viral replication at 75 uM measured at 72 hrs post-infection by qRT-PCR analysis; assay type: functional, organism-based; settings: Severe acute respiratory syndrome coronavirus 2
SARS-CoV-2 [9] = experiment: Antiviral activity against SARS-CoV-2 variant Delta infected in African green monkey Vero E6 cells assessed as reduction in virus-induced cytopathic effect at 75 uM preincubated with virus for 1 hr followed by infection with cells and measured after 72 hrs by microscopic analysis; assay type: functional, organism-based; settings: Severe acute respiratory syndrome coronavirus 2, time 73.0 hrs
SARS-CoV-2 [10] = experiment: Antiviral activity against SARS-CoV-2 variant Omicron BA.3 infected in African green monkey Vero E6 cells assessed as reduction in virus titers of progeny virus in supernatant measured after 72 hrs by CPE assay; assay type: functional, organism-based; settings: Severe acute respiratory syndrome coronavirus 2, Omicron BA.3, Vero C1008, 72 h
SARS-CoV-2 [11] = experiment: Antiviral activity against SARS-CoV-2 variant Delta infected in African green monkey Vero E6 cells assessed as reduction in viral replication at 75 uM measured at 72 hrs post-infection by qRT-PCR analysis; assay type: functional, organism-based; settings: Severe acute respiratory syndrome coronavirus 2
SARS-CoV-2 [12] = experiment: Antiviral activity against SARS-CoV-2 variant Omicron BA.3 infected in African green monkey Vero E6 cells assessed as inhibition of virus titers of progeny virus in supernatant at 75 uM measured after 72 hrs by CPE assay relative to control; assay type: functional; settings: Severe acute respiratory syndrome coronavirus 2, Omicron BA.3, Vero C1008
SARS-CoV-2 [13] = experiment: Antiviral activity against SARS-CoV-2 variant Omicron BA.5 infected in African green monkey Vero E6 cells assessed as reduction in virus titers of progeny virus in supernatant measured after 72 hrs by CPE assay; assay type: functional, organism-based; settings: Severe acute respiratory syndrome coronavirus 2, Omicron BA.5, Vero C1008, 72 h
SARS-CoV-2 [14] = experiment: Antiviral activity against SARS-CoV-2 variant Omicron BA.4 infected in African green monkey Vero E6 cells assessed as reduction in virus titers of progeny virus in supernatant measured after 72 hrs by CPE assay; assay type: functional, organism-based; settings: Severe acute respiratory syndrome coronavirus 2, Omicron BA.4, Vero C1008, 72 h
SARS-CoV-2 [15] = experiment: Antiviral activity against SARS-CoV-2 variant Omicron BA.4 infected in African green monkey Vero E6 cells assessed as inhibition of virus titers of progeny virus in supernatant at 75 uM measured after 72 hrs by CPE assay relative to control; assay type: functional; settings: Severe acute respiratory syndrome coronavirus 2, Omicron BA.4, Vero C1008
SARS-CoV-2 [16] = experiment: Antiviral activity against SARS-CoV-2 variant Delta infected in African green monkey Vero E6 cells assessed as reduction in virus titers of progeny virus in supernatant measured after 72 hrs by CPE assay; assay type: functional, organism-based; settings: Severe acute respiratory syndrome coronavirus 2, Delta, Vero C1008, 72 h
SARS-CoV-2 [17] = experiment: Antiviral activity against SARS-CoV-2 variant Omicron BA.3 infected African green monkey Vero E6 cells assessed as reduction in virus-induced cytopathic effect at 75 uM preincubated with virus for 1 hr followed by infection with cells and measured after 72 hrs by microscopic analysis; assay type: functional, organism-based; settings: Severe acute respiratory syndrome coronavirus 2, time 73.0 hrs
SARS-CoV-2 [18] = experiment: Antiviral activity against SARS-CoV-2 variant Omicron BA.2 infected in African green monkey Vero E6 cells assessed as inhibition of virus titers of progeny virus in supernatant at 75 uM measured after 72 hrs by CPE assay relative to control; assay type: functional; settings: Severe acute respiratory syndrome coronavirus 2, Omicron BA.2, Vero C1008
SARS-CoV-2 [19] = experiment: Antiviral activity against SARS-CoV-2 variant Omicron BA.5 infected African green monkey Vero E6 cells assessed as reduction in virus-induced cytopathic effect at 75 uM preincubated with virus for 1 hr followed by infection with cells and measured after 72 hrs by microscopic analysis; assay type: functional, organism-based; settings: Severe acute respiratory syndrome coronavirus 2, time 73.0 hrs
SARS-CoV-2 [20] = experiment: Antiviral activity against SARS-CoV-2 variant Delta infected in African green monkey Vero E6 cells assessed as inhibition of virus titers of progeny virus in supernatant at 75 uM measured after 72 hrs by CPE assay relative to control; assay type: functional; settings: Severe acute respiratory syndrome coronavirus 2, Delta, Vero C1008
SARS-CoV-2 [21] = experiment: Antiviral activity against SARS-CoV-2 variant Omicron BA.5 infected in African green monkey Vero E6 cells assessed as inhibition of virus titers of progeny virus in supernatant at 75 uM measured after 72 hrs by CPE assay relative to control; assay type: functional; settings: Severe acute respiratory syndrome coronavirus 2, Omicron BA.5, Vero C1008
SARS-CoV-2 [22] = experiment: Antiviral activity against SARS-CoV-2 variant Omicron BA.1 infected in African green monkey Vero E6 cells assessed as reduction in virus titers of progeny virus in supernatant measured after 72 hrs by CPE assay; assay type: functional, organism-based; settings: Severe acute respiratory syndrome coronavirus 2, Omicron BA.1, Vero C1008, 72 h
SARS-CoV-2 [23] = experiment: Antiviral activity against SARS-CoV-2 variant Omicron BA.1 infected in African green monkey Vero E6 cells assessed as reduction in virus-induced cytopathic effect at 75 uM preincubated with virus for 1 hr followed by infection with cells and measured after 72 hrs by microscopic analysis; assay type: functional, organism-based; settings: Severe acute respiratory syndrome coronavirus 2, time 73.0 hrs
SARS-CoV-2 [24] = experiment: Antiviral activity against SARS-CoV-2 variant Omicron BA.2 infected in African green monkey Vero E6 cells assessed as reduction in virus-induced cytopathic effect at 75 uM preincubated with virus for 1 hr followed by infection with cells and measured after 72 hrs by microscopic analysis; assay type: functional, organism-based; settings: Severe acute respiratory syndrome coronavirus 2, time 73.0 hrs
SARS-CoV-2 [25] = experiment: Antiviral activity against SARS-CoV-2 variant Omicron BA.2 infected in African green monkey Vero E6 cells assessed as reduction in virus titers of progeny virus in supernatant measured after 72 hrs by CPE assay; assay type: functional, organism-based; settings: Severe acute respiratory syndrome coronavirus 2, Omicron BA.2, Vero C1008, 72 h
SARS-CoV-2 [26] = experiment: Antiviral activity against SARS-CoV-2 variant Omicron BA.4 infected in African green monkey Vero E6 cells assessed as reduction in viral replication at 75 uM measured at 72 hrs post-infection by qRT-PCR analysis; assay type: functional, organism-based; settings: Severe acute respiratory syndrome coronavirus 2
SARS-CoV-2 [27] = experiment: Antiviral activity against SARS-CoV-2 variant Omicron BA.2 infected in African green monkey Vero E6 cells assessed as reduction in viral replication at 75 uM measured at 72 hrs post-infection by qRT-PCR analysis; assay type: functional, organism-based; settings: Severe acute respiratory syndrome coronavirus 2
SARS-CoV-2 [28] = experiment: Antiviral activity against SARS-CoV-2 variant Omicron BA.1 infected in African green monkey Vero E6 cells assessed as inhibition of virus titers of progeny virus in supernatant at 75 uM measured after 72 hrs by CPE assay relative to control; assay type: functional; settings: Severe acute respiratory syndrome coronavirus 2, Omicron BA.1, Vero C1008
SARS-CoV-2 [29] = experiment: Antiviral activity against SARS-CoV-2 variant Omicron BA.3 infected in African green monkey Vero E6 cells assessed as reduction in viral replication at 75 uM measured at 72 hrs post-infection by qRT-PCR analysis; assay type: functional, organism-based; settings: Severe acute respiratory syndrome coronavirus 2
SARS-CoV-2 [30] = experiment: Antiviral activity against SARS-CoV-2 variant Omicron BA.4 infected African green monkey Vero E6 cells assessed as reduction in virus-induced cytopathic effect at 75 uM preincubated with virus for 1 hr followed by infection with cells and measured after 72 hrs by microscopic analysis; assay type: functional, organism-based; settings: Severe acute respiratory syndrome coronavirus 2, time 73.0 hrs

With `C=C(C)[C@@H]1CCC(C)=C[C@H]1c1c(O)cc(CCC)cc1O` [CANNABIDIVARIN] the Activity (SARS-CoV-2 [1]) was “inactive”, the Activity (SARS-CoV-2 [2]) was “inactive” and the Activity (SARS-CoV-2 [3]) was “inactive”. For the same molecule, the Activity (SARS-CoV-2 [4]) was “inactive”, the Activity (SARS-CoV-2 [5]) was “inactive” and the Activity (SARS-CoV-2 [6]) was “inactive”.
For `CCCc1cc(O)c(C/C=C(\C)CCC=C(C)C)c(O)c1`, the Activity (SARS-CoV-2 [1]) was “inactive”, the Activity (SARS-CoV-2 [2]) was “inactive” and the Activity (SARS-CoV-2 [3]) was “inactive”. The Activity (SARS-CoV-2 [4]) was “inactive”, the Activity (SARS-CoV-2 [5]) was “inactive” and the Activity (SARS-CoV-2 [6]) was “inactive”.
`CCCCCc1cc(O)c2c(c1)OC(C)(CCC=C(C)C)C=C2` (configuration not stated) [CANNABICHROMENE] was tested, and the Activity (SARS-CoV-2 [1]) was “inactive”, the Activity (SARS-CoV-2 [2]) was “inactive” and the Activity (SARS-CoV-2 [3]) was “inactive”. For the same molecule, the Activity (SARS-CoV-2 [4]) was “inactive”, the Activity (SARS-CoV-2 [5]) was “inactive” and the Activity (SARS-CoV-2 [6]) was “inactive”.
`C=C(C)[C@@H]1CCC(C)=C[C@H]1c1c(O)cc(CCCCC)c(C(=O)O)c1O` [CANNABIDIOLIC ACID] was tested, and the Activity (SARS-CoV-2 [7]) was “Active”, the Activity (SARS-CoV-2 [8]) was “Active” and the Activity (SARS-CoV-2 [9]) was “Active”. The IC50 (SARS-CoV-2 [10]) was 31.7 µM, the Activity (SARS-CoV-2 [11]) was “Active” and the inhibition at 75 µM (SARS-CoV-2 [12]) was > 90%. The IC50 (SARS-CoV-2 [13]) was 47.5 µM, the IC50 (SARS-CoV-2 [14]) was 47.7 µM and the inhibition at 75 µM (SARS-CoV-2 [15]) was > 90%. For the same molecule, the IC50 (SARS-CoV-2 [16]) was 30.7 µM, the Activity (SARS-CoV-2 [17]) was “Active” and the inhibition at 75 µM (SARS-CoV-2 [18]) was > 90%. The Activity (SARS-CoV-2 [19]) was “Active”, the inhibition at 75 µM (SARS-CoV-2 [20]) was > 90% and the inhibition at 75 µM (SARS-CoV-2 [21]) was > 90%. The IC50 (SARS-CoV-2 [22]) was 45.4 µM, the Activity (SARS-CoV-2 [23]) was “Active” and the Activity (SARS-CoV-2 [24]) was “Active”. The IC50 (SARS-CoV-2 [25]) was 35.1 µM, the Activity (SARS-CoV-2 [26]) was “Active” and the Activity (SARS-CoV-2 [27]) was “Active”. The inhibition at 75 µM (SARS-CoV-2 [28]) was > 90%, the Activity (SARS-CoV-2 [29]) was “Active” and the Activity (SARS-CoV-2 [30]) was “Active”.
